# Assay results as given in ChEMBL document CHEMBL3244272, “Folate antagonists. 15. 2,3-Diamino-6-(2-naphthylsulfonyl)quinazoline and related 2,4-diamino-6-[(phenyl and naphthyl)sulfinyl and sulfonyl]quinazolines, a potent new class of antimetabolites with phenomenal antimalarial activity” (J Med Chem, 1979).
# Experiments:
# Format in all cases: functional
# Enterococcus faecalis = assay: Antibacterial activity against Streptococcus faecalis MGH-2 assessed as growth inhibition
# Staphylococcus aureus [1] = assay: Antibacterial activity against Staphylococcus aureus UC-76 assessed as growth inhibition
# Staphylococcus aureus [2] = assay: Antibacterial activity against Staphylococcus aureus S18713 assessed as growth inhibition
# Pseudomonas aeruginosa = assay: Antibacterial activity against Pseudomonas aeruginosa 28 assessed as growth inhibition
# Escherichia coli = assay: Antibacterial activity against Escherichia coli Vogel assessed as growth inhibition
# Shigella sonnei = assay: Antibacterial activity against Shigella sonnei C-10 assessed as growth inhibition
# [3] = test system: Mycobacterium tuberculosis; assay: Antibacterial activity against Mycobacterium tuberculosis H37Rv assessed as growth inhibition
# Plasmodium berghei [4] = assay: Antimalarial activity against trophozoite-induced Plasmodium berghei infected in sc dosed mouse assessed as minimum curative dose
# Plasmodium berghei [5] = assay: Antimalarial activity against trophozoite-induced Plasmodium berghei infected in mouse assessed as change in mean survival time at 20 mg/kg, sc single dose after 72 hrs of infection; details: route subcutaneous
# Plasmodium berghei [6] = assay: Antimalarial activity against trophozoite-induced Plasmodium berghei infected in mouse assessed as change in mean survival time at 40 mg/kg, sc single dose after 72 hrs of infection; details: route subcutaneous
# Plasmodium berghei [7] = assay: Antimalarial activity against trophozoite-induced Plasmodium berghei infected in mouse assessed as change in mean survival time at 320 mg/kg, sc single dose after 72 hrs of infection; details: route subcutaneous
# Plasmodium berghei [8] = assay: Antimalarial activity against trophozoite-induced Plasmodium berghei infected in mouse assessed as change in mean survival time at 160 mg/kg, sc single dose after 72 hrs of infection; details: route subcutaneous
# Plasmodium berghei [9] = assay: Antimalarial activity against trophozoite-induced Plasmodium berghei infected in mouse assessed as change in mean survival time at 80 mg/kg, sc single dose after 72 hrs of infection; details: route subcutaneous
# Plasmodium berghei [10] = assay: Antimalarial activity against trophozoite-induced Plasmodium berghei infected in mouse assessed as change in mean survival time at 10 mg/kg, sc single dose after 72 hrs of infection; details: route subcutaneous
# Plasmodium gallinaceum [11] = assay: Antimalarial activity against cycloguanil-resistant Plasmodium gallinaceum infected in mouse assessed as dose required to suppress parasitemia by 90% compound treated through gavage for 3 days
# Plasmodium gallinaceum [12] = assay: Antimalarial activity against cycloguanil-resistant Plasmodium gallinaceum infected in mouse assessed as dose required to suppress parasitemia by 90% compound treated through gavage for 3 days relative to parent strain
# Plasmodium berghei [13] = assay: Antimalarial activity against trophozoite-induced Plasmodium berghei infected in mouse assessed as change in mean survival time at 5 mg/kg, sc single dose after 72 hrs of infection; details: route subcutaneous
# Plasmodium berghei [14] = assay: Antimalarial activity against trophozoite-induced Plasmodium berghei infected in mouse assessed as change in mean survival time at 2.5 mg/kg, sc single dose after 72 hrs of infection; details: route subcutaneous
# Plasmodium berghei [15] = assay: Antimalarial activity against trophozoite-induced Plasmodium berghei infected in mouse assessed as change in mean survival time at 1.25 mg/kg, sc single dose after 72 hrs of infection; details: route subcutaneous
# Plasmodium falciparum [16] = assay: Antimalarial activity against chloroquine-sensitive, pyrimethamine-resistant Plasmodium falciparum Malayan Camp CH/Q infected in Aotus monkey assessed as dose required to >50% cures compound treated for 7 days
# Plasmodium falciparum [17] = assay: Antimalarial activity against chloroquine-resistant, pyrimethamine-sensitive Plasmodium falciparum Vietnam Oak Knoll in Aotus monkey assessed as dose required to >50% cures compound treated for 7 days
Compound,MIC (Enterococcus faecalis),MIC (Staphylococcus aureus [1]),MIC (Staphylococcus aureus [2]),MIC (Pseudomonas aeruginosa),MIC (Escherichia coli),MIC (Shigella sonnei),MIC [3],MCD (Plasmodium berghei [4]),MST (Plasmodium berghei [5]),MST (Plasmodium berghei [6]),MST (Plasmodium berghei [9]),MST (Plasmodium berghei [10]),MST (Plasmodium berghei [13]),MST (Plasmodium berghei [14]),further results
Nc1nc(N)c2c(Cl)c([S+]([O-])c3ccccc3Cl)ccc2n1 (stereo unspecified),< 0.25 µg/mL,2 µg/mL,> 25 µg/mL,> 25 µg/mL,> 25 µg/mL,> 25 µg/mL,> 25 µg/mL,40 mg/kg,8.6 days,,,,,,
Nc1nc(N)c2c(Cl)c([S+]([O-])c3ccc4ccccc4c3)ccc2n1 (stereo unspecified),< 0.25 µg/mL,> 25 µg/mL,> 25 µg/mL,> 25 µg/mL,> 25 µg/mL,> 25 µg/mL,> 25 µg/mL,5 mg/kg,9.3 days,23.9 days,,,,,
Nc1nc(N)c2cc(S(=O)(=O)c3cccc4ccccc34)ccc2n1,> 25 µg/mL,> 25 µg/mL,> 25 µg/mL,> 25 µg/mL,> 25 µg/mL,> 25 µg/mL,> 25 µg/mL,80 mg/kg,2.9 days,3.5 days,5.5 days,0.7 days,,,MST (Plasmodium berghei [7]): 14.4 days; MST (Plasmodium berghei [8]): 14.3 days
Nc1nc(N)c2c(Cl)c(S(=O)(=O)c3ccc4ccccc4c3)ccc2n1,< 0.25 µg/mL,> 25 µg/mL,> 25 µg/mL,> 25 µg/mL,> 25 µg/mL,> 25 µg/mL,> 25 µg/mL,5 mg/kg,0.7 days,4.7 days,7.1 days,,,,MST (Plasmodium berghei [7]): 13.3 days; MST (Plasmodium berghei [8]): 11.5 days
Nc1nc(N)c2cc(S(=O)(=O)c3ccc(F)cc3)ccc2n1,,,,,,,,20 mg/kg,,,,12.9 days,13.6 days,6.9 days,Activity (Plasmodium gallinaceum [11]): 0.6 mg/kg; fold change (FC) (Plasmodium gallinaceum [12]): 3; MST (Plasmodium berghei [15]): 4.1 days
Nc1nc(N)c2cc([S+]([O-])c3ccc(Br)cc3)ccc2n1 (stereo unspecified),< 0.25 µg/mL,< 0.25 µg/mL,< 0.25 µg/mL,> 25 µg/mL,2.5 µg/mL,> 25 µg/mL,,10 mg/kg,13.6 days,20.9 days,,10.1 days,6.7 days,3.3 days,
Nc1nc(N)c2c(Cl)c(S(=O)(=O)c3ccccc3)ccc2n1,< 0.25 µg/mL,2 µg/mL,2 µg/mL,> 25 µg/mL,2 µg/mL,2 µg/mL,> 25 µg/mL,640 mg/kg,11.9 days,22.4 days,,,,,
Cc1cc(S(=O)(=O)c2ccc3nc(N)nc(N)c3c2)ccc1Br,,,,,,,,80 mg/kg,1.5 days,5.9 days,10.5 days,0.5 days,,,MST (Plasmodium berghei [7]): 18.9 days; MST (Plasmodium berghei [8]): 17.4 days
Nc1nc(N)c2cc([S+]([O-])c3cccc4ccccc34)ccc2n1 (stereo unspecified),> 25 µg/mL,> 25 µg/mL,> 25 µg/mL,> 25 µg/mL,> 25 µg/mL,> 25 µg/mL,,80 mg/kg,1.9 days,7.9 days,13.7 days,1.1 days,,,MST (Plasmodium berghei [7]): 16.4 days; MST (Plasmodium berghei [8]): 15.2 days
Nc1nc(N)c2cc(Sc3cccc(C(F)(F)F)c3)ccc2n1 [WR-159412],,,,,,,,,,,,,,,Activity (Plasmodium falciparum [16]): 0.39 mg/kg; Activity (Plasmodium falciparum [17]): 0.098 mg/kg
Nc1nc(N)c2cc(Sc3ccc(Cl)c(Cl)c3)ccc2n1,,,,,,,,,,,,,,,Activity (Plasmodium gallinaceum [11]): <0.4 mg/kg; fold change (FC) (Plasmodium gallinaceum [12]): 0
Nc1nc(N)c2cc(S(=O)(=O)c3ccc(Br)cc3)ccc2n1,< 0.25 µg/mL,< 0.25 µg/mL,< 0.25 µg/mL,> 25 µg/mL,2.5 µg/mL,> 25 µg/mL,,10 mg/kg,9.9 days,,,13.1 days,10.3 days,6.5 days,Activity (Plasmodium gallinaceum [11]): <1.6 mg/kg; fold change (FC) (Plasmodium gallinaceum [12]): <3
Nc1nc(N)c2cc(Sc3ccc4ccccc4c3)ccc2n1,,,,,,,,,,,,,,,Activity (Plasmodium gallinaceum [11]): <1.6 mg/kg; fold change (FC) (Plasmodium gallinaceum [12]): 0; Activity (Plasmodium falciparum [16]): 3.125 mg/kg; Activity (Plasmodium falciparum [17]): 1.56 mg/kg
Nc1nc(N)c2c(Cl)c([S+]([O-])c3cccc(C(F)(F)F)c3)ccc2n1 (stereo unspecified),,,,,,,,40 mg/kg,0.5 days,,1.1 days,,,,MST (Plasmodium berghei [7]): 1.5 days
Nc1nc(N)c2cc(S(=O)(=O)c3cccc(C(F)(F)F)c3)ccc2n1,0.25 µg/mL,1.5 µg/mL,2 µg/mL,> 25 µg/mL,> 25 µg/mL,> 25 µg/mL,25 µg/mL,40 mg/kg,13.9 days,,,11.6 days,7.7 days,1.5 days,Activity (Plasmodium falciparum [16]): 1.56 mg/kg; Activity (Plasmodium falciparum [17]): 0.39 mg/kg; MST (Plasmodium berghei [15]): 0.5 days
Nc1nc(N)c2c(Cl)c(S(=O)(=O)c3cccc(C(F)(F)F)c3)ccc2n1,< 0.25 µg/mL,> 25 µg/mL,> 25 µg/mL,> 25 µg/mL,> 25 µg/mL,> 25 µg/mL,> 25 µg/mL,40 mg/kg,0.7 days,0.7 days,1.1 days,0.5 days,,,MST (Plasmodium berghei [7]): 4.7 days; MST (Plasmodium berghei [8]): 3.7 days
Nc1nc(N)c2cc(Sc3ccc(Br)cc3)ccc2n1,,,,,,,,,,,,,,,Activity (Plasmodium gallinaceum [11]): <1.6 mg/kg; fold change (FC) (Plasmodium gallinaceum [12]): <4
COc1cc(Cc2cnc(N)nc2N)cc(OC)c1OC [TRIMETHOPRIM],< 0.25 µg/mL,< 0.25 µg/mL,< 0.25 µg/mL,> 25 µg/mL,< 0.25 µg/mL,< 0.25 µg/mL,> 25 µg/mL,,,,,,,,
Nc1nc(N)c2c(Cl)c([S+]([O-])c3ccc(F)cc3)ccc2n1 (stereo unspecified),< 0.25 µg/mL,< 0.25 µg/mL,1 µg/mL,> 25 µg/mL,< 0.25 µg/mL,< 0.25 µg/mL,2.5 µg/mL,40 mg/kg,4.1 days,20.9 days,27.9 days,,,,
Nc1nc(N)c2cc([S+]([O-])c3ccc4ccccc4c3)ccc2n1 (stereo unspecified),< 0.25 µg/mL,< 0.25 µg/mL,< 0.25 µg/mL,> 25 µg/mL,< 0.25 µg/mL,2.5 µg/mL,,20 mg/kg,,,,31.9 days,14.2 days,10.9 days,Activity (Plasmodium gallinaceum [11]): 0.1 mg/kg; fold change (FC) (Plasmodium gallinaceum [12]): 0; Activity (Plasmodium falciparum [16]): 0.78 mg/kg; Activity (Plasmodium falciparum [17]): 0.39 mg/kg; MST (Plasmodium berghei [15]): 6.7 days
Nc1nc(N)c2cc([S+]([O-])c3ccc(Cl)c(Cl)c3)ccc2n1 (stereo unspecified),< 0.25 µg/mL,> 25 µg/mL,> 25 µg/mL,> 25 µg/mL,> 25 µg/mL,> 25 µg/mL,,10 mg/kg,15.9 days,21.9 days,,8.7 days,7.9 days,4.1 days,MST (Plasmodium berghei [15]): 1.1 days
Nc1nc(N)c2cc([S+]([O-])c3cccc(-c4ccccc4)c3)ccc2n1 (stereo unspecified),< 0.25 µg/mL,< 0.25 µg/mL,< 0.25 µg/mL,> 25 µg/mL,> 25 µg/mL,> 25 µg/mL,,40 mg/kg,11.1 days,18.9 days,22.9 days,6.7 days,4.1 days,1.1 days,MST (Plasmodium berghei [15]): 0.5 days
Nc1nc(N)c2c(Cl)c(S(=O)(=O)c3ccc(F)cc3)ccc2n1,< 0.25 µg/mL,2 µg/mL,> 25 µg/mL,> 25 µg/mL,10 µg/mL,> 25 µg/mL,> 25 µg/mL,40 mg/kg,9.7 days,13.4 days,26.9 days,9.3 days,4.1 days,0.5 days,MST (Plasmodium berghei [15]): 0.5 days
Nc1nc(N)c2cc(S(=O)(=O)c3ccccc3)ccc2n1,,,,,,,,160 mg/kg,7.7 days,12.1 days,12.6 days,5.1 days,0.3 days,0.3 days,
CN(C)c1ccc(Sc2ccc3nc(N)nc(N)c3c2)cc1,,,,,,,,,,,,,,,Activity (Plasmodium gallinaceum [11]): 0.9 mg/kg; fold change (FC) (Plasmodium gallinaceum [12]): 0; Activity (Plasmodium falciparum [16]): 2.5 mg/kg; Activity (Plasmodium falciparum [17]): 1.25 mg/kg
Nc1nc(N)c2c(Cl)c([S+]([O-])c3ccccc3)ccc2n1 (stereo unspecified),,,,,,,,640 mg/kg,8.5 days,12.9 days,17.9 days,,,,
